The source of these data is patent publication US10894788B2, “Inhibitors of cyclin-dependent kinases” (Kinnate Biopharma Inc., priority 2018, dated 2021).

pIC50: −log10 of the molar value.

One assay has as its target CDK12 wt/CycK (Homo sapiens (Human), UniProt Q9NYV4). Kind of assay: Radiometric protein kinase assay (33PanQinase Activity Assay), Assay Condition A (thiol containing conditions). The note with it: thiol containing conditions (1.2 mM DTT), ATP 0.3 μM; read-out: CDK12 IC50 Condition A. The format is biochemical. In a few lines:
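Recombinant human kinase incubated with [33P]ATP, substrate and compound (10 concentrations, 1×10^−04M to 3×10^−09M, singlicate, 1% DMSO) under thiol-containing buffer conditions, 60 min at 30 °C. 33Pi incorporation counted by scintillation; residual activity normalised to no-inhibitor and no-kinase controls, IC50 derived.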

In another assay the target is CDK12 (Homo sapiens (Human), UniProt Q9NYV4). The assay is described as follows: Radiometric protein kinase assay (33PanQinase Activity Assay), Assay Condition B (thiol-free conditions). It is filed as biochemical. The note with it: thiol-free conditions (1 mM TCEP, glutathione removed). How it is done: Example 2—Assay Condition B (Thiol-Free Conditions)
The IC50 profile of compounds was determined using one protein kinase in a customized, thiol free assay. […] Prior to testing, the 1×10^−03 M stock solutions in column 2 of the master plates were subjected to a serial, semi-logarithmic dilution using 100% DMSO as a solvent. […] Column 1 and 7 were filled with 100% DMSO as controls. Subsequently, 2×10 microliter from each well of the serial diluted copy plates were aliquoted with a 96 channel pipettor into two identical sets of “compound dilution plates”. All plates were barcoded for automated identification and tracking purposes. […] All compounds were stored as powder until being solubilized in DMSO. Solubilized compounds were stored as 1×10^−02 M/100% DMSO stock solutions. Prior to the assay process, 90 microliters of H2O were added to each well of a set of compound dilution plates. To minimize potential precipitation, the H2O was added to each plate only a few minutes before the transfer of the compound solutions into the assay plates. Each plate was shaken thoroughly, resulting in compound dilution plates with a final of 10% DMSO. For each assay, 5 microliters of solution from each well of the compound dilution plates/10% DMSO were transferred into the assay plate. The final volume of the assay was 50 μl. All compounds were tested at 10 final assay concentrations in the range from 1×10^−05 M to 3×10^−10 M, in singlicate. The final DMSO concentration in the reaction cocktails was 1% in all cases. A radiometric protein kinase assay (33PanQinase® Activity Assay) was used for measuring the kinase activity of the protein kinase. All kinase assays were performed in 96-well FlashPlates™ from PerkinElmer (Boston, Mass., USA) in a 50 microliter reaction volume. The reaction cocktail was pipetted in four steps in the following order: 20 microliter of assay buffer (standard buffer)·5 microliter of ATP solution (in H2O)·5 microliter of test compound (in 10% DMSO)·20 microliter enzyme/substrate mix. […] For all experiments labeled as “Thiol-free”, all glutathione was exchanged from protein preparations so as to be removed from the assay and final buffer conditions contained no thiol-containing reagents. This was done so there would be no interference with the key cysteines in the proteins of interest.
For data analysis, the median value of the counts in column 1 (n=8) of each assay plate was defined as “low control”. This value reflects unspecific binding of radioactivity to the plate in the absence of a protein kinase but in the presence of the substrate. The median value of the counts in column 7 of each assay plate (n=8) was taken as the “high control”, i.e. full activity in the absence of any inhibitor. The difference between high and low control was taken as 100% activity. As part of the data evaluation the low control value from a particular plate was subtracted from the high control value as well as from all 80 “compound values” of the corresponding plate. The residual activity (in %) for each well of a particular plate was calculated by using the following formula: Res. Activity (%)=100×[(cpm of compound−low control)/(high control−low control)]
The residual activities for each concentration and the compound IC50 values were calculated using Quattro Workflow V3.1.1 (Quattro Research GmbH, Munich, Germany; www.quattro-research.com). […] The fitting method used was a least-squares fit. As a parameter for assay quality, the Z′-factor (Zhang et al., J. Biomol. Screen. 2: 67-73, 1999) for the low and high controls of each assay plate (n=8) was used. ProQinase's criterion for repetition of an assay plate is a Z′-factor below 0.4 (Iversen et al., J. Biomol. Screen. 3: 247-252, 2006).

CDK12 wt/CycK, sequence (Q9NYV4 whole entry): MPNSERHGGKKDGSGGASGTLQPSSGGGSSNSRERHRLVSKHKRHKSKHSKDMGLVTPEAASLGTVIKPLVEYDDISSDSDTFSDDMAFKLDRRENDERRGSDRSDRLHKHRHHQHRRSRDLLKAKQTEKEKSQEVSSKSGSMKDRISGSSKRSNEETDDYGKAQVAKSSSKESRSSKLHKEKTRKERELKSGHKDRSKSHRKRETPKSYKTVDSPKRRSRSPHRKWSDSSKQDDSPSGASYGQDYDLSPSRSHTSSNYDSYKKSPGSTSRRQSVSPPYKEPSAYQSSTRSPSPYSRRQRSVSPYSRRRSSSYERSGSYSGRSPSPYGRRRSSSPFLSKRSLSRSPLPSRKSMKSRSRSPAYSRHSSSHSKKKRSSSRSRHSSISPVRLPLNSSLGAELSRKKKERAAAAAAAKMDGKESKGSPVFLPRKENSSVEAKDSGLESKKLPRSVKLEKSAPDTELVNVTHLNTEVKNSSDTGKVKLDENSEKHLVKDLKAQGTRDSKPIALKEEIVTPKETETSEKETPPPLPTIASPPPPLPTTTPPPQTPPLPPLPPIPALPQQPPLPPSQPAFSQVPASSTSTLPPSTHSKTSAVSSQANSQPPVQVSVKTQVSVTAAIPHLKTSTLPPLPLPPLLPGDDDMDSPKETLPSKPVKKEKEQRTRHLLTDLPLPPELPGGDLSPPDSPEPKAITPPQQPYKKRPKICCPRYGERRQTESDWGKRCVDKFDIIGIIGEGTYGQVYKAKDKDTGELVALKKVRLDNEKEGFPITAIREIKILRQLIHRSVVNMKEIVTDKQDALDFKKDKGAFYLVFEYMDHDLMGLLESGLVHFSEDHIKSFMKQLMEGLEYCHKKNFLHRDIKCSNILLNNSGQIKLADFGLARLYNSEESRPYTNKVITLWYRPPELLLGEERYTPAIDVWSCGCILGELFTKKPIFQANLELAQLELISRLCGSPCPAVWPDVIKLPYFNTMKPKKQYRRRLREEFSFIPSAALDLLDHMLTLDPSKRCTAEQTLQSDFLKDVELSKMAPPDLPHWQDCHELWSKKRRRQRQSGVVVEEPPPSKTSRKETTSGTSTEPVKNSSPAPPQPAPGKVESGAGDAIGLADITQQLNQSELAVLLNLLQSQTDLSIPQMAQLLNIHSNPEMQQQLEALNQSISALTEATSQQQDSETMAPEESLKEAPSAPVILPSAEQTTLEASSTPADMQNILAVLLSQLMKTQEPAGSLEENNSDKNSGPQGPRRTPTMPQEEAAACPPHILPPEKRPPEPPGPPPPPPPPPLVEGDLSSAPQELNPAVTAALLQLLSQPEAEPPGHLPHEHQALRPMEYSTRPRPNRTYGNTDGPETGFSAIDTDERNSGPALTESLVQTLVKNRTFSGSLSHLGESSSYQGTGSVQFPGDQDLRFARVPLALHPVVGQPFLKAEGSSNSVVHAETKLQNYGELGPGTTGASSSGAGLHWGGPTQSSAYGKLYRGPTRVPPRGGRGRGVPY
CDK12 wt/CycK, sequence (O75909 whole entry partner): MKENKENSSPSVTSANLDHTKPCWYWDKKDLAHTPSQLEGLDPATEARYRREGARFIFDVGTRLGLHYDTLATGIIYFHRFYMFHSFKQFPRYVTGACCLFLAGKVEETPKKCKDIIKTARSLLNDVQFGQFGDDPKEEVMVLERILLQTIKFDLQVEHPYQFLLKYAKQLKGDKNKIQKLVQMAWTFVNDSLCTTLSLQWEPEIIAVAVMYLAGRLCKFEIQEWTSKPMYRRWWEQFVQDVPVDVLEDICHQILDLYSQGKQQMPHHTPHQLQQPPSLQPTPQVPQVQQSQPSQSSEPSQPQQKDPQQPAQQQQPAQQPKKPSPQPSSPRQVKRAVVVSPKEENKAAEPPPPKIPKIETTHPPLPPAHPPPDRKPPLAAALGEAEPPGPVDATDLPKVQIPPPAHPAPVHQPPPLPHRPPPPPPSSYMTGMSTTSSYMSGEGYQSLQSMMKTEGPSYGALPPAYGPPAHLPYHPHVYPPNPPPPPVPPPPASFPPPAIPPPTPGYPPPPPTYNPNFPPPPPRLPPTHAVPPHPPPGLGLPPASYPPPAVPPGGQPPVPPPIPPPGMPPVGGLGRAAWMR
CDK12, sequence (Q9NYV4 whole entry): as the sequence (Q9NYV4 whole entry) above
CDK12, sequence (O75909 whole entry partner): as the sequence (O75909 whole entry partner) above

The term pIC50 denotes the negative decadic logarithm of the IC50, by convention in mol/L. Consider `CCC(=O)Nc1ccc(C(=O)N2CC[C@@H](Nc3ncc(Br)c(OC)n3)C2)cc1` [Example 14, (R)—N-(4-(3-((5-bromo-4-methoxypyrimidin-2-yl)amino)pyrrolidine-1-carbonyl)phenyl)propionamide], for which the pIC50 at CDK12 wt/CycK and against CDK12 was more than 7.00 each time.
Turning to `CCC(=O)Nc1ccc(C(=O)N2CC[C@@H](Nc3ncc(Br)cn3)C2)cc1` [Example 17, (R)—N-(4-(3-((5-bromopyrimidin-2-yl)amino)pyrrolidine-1-carbonyl)phenyl)propionamide], the pIC50 on CDK12 wt/CycK and against CDK12 was 6.00 to 7.00 each time.
In the case of `C=CC(=O)Nc1ccc(C(=O)N2CC[C@@H](Nc3ncc(Br)cn3)C2)cc1` [Example 19, (R)—N-(4-(3-((5-bromopyrimidin-2-yl)amino)pyrrolidine-1-carbonyl)phenyl)acrylamide], the pIC50 at CDK12 wt/CycK and at CDK12 was more than 7.00 in each case.
On CDK12, `C=CC(=O)Nc1ccc(C(=O)N2CC[C@@H](Nc3ncc(Br)cn3)C2)cc1C` [Example 76, (R)—N-(4-(3-((5-bromopyrimidin-2-yl)amino)pyrrolidine-1-carbonyl)-2-methylphenyl)acrylamide] showed a pIC50 of more than 7.00.
The same measure, in the same setting: to `C=CC(=O)Nc1ccc(C(=O)N2CC[C@@H](Nc3ncc(Cl)c(OC)n3)C2)cc1N1CCN(C)CC1` [Example 78, (R)—N-(4-(3-((5-chloro-4-methoxypyrimidin-2-yl)amino)pyrrolidine-1-carbonyl)-2-(4-methylpiperazin-1-yl)phenyl)acrylamide] belongs more than 7.00; to `C=CC(=O)Nc1ccc(C(=O)N2CC[C@@H](Nc3ncc(C(F)(F)F)cn3)C2)cc1C` [Example 79, (R)—N-(2-methyl-4-(3-((5-(trifluoromethyl)pyrimidin-2-yl)amino)pyrrolidine-1-carbonyl)phenyl)acrylamide], more than 7.00; to `C=CC(=O)Nc1ccc(C(=O)N2CC[C@@H](Nc3ncc(Cl)c(C)n3)C2)cc1C` [Example 80, (R)—N-(4-(3-((5-chloro-4-methylpyrimidin-2-yl)amino)pyrrolidine-1-carbonyl)-2-methylphenyl)acrylamide], 6.00 to 7.00.
Same read-out and setting: the value for `C=CC(=O)Nc1ccc(C(=O)N2CC[C@@H](Nc3ncc(C)c(OC4CC4)n3)C2)cc1` [Example 81, (R)—N-(4-(3-((4-cyclopropoxy-5-methylpyrimidin-2-yl)amino)pyrrolidine-1-carbonyl)phenyl)acrylamide] was 6.00 to 7.00; that for `C=CC(=O)Nc1ccc(C(=O)N2CC[C@@H](Nc3ncc(Cl)c(OC)n3)C2)cc1-c1cnn(C)c1` [Example 82, (R)—N-(4-(3-((5-chloro-4-methoxypyrimidin-2-yl)amino)pyrrolidine-1-carbonyl)-2-(1-methyl-1H-pyrazol-4-yl)phenyl)acrylamide] was 6.00 to 7.00; that for `C=C(CC)C(=O)Nc1ccc(C(=O)N2CC[C@@H](Nc3ncc(Cl)cn3)C2)cc1` [Example 83, (R)—N-(4-(3-((5-chloropyrimidin-2-yl)amino)pyrrolidine-1-carbonyl)phenyl)-2-methylenebutanamide] was 6.00 to 7.00.
On to `C=CS(=O)(=O)Nc1ccc(C(=O)N2CC[C@@H](Nc3ncc(Cl)cn3)C2)cc1` [Example 84, (R)—N-(4-(3-((5-chloropyrimidin-2-yl)amino)pyrrolidine-1-carbonyl)phenyl)ethenesulfonamide], for which the pIC50 against CDK12 is 6.00 to 7.00.
Same read-out and setting: the value for `C=CC(=O)Nc1ccc(C(=O)N2CC[C@@H](Nc3ccc(C4CC4)cn3)C2)cc1` [Example 85, (R)—N-(4-(3-((5-cyclopropylpyridin-2-yl)amino)pyrrolidine-1-carbonyl)phenyl)acrylamide] was 6.00 to 7.00; that for `C#Cc1cnc(N[C@@H]2CCN(C(=O)c3ccc(N(C)C(=O)C=C)cc3)C2)nc1` [Example 113, (R)—N-(4-(3-((5-ethynylpyrimidin-2-yl)amino)pyrrolidine-1-carbonyl)phenyl)-N-methylacrylamide] was 6.00 to 7.00.
